Results reported in US4591551A, “Radioenzymatic method for assaying normetanephrine and octopamine” (University of Southern California, priority 1984, dated 1986).

target: T1, phenylethanolamine-N-methyl transferase (Bos taurus, UniProt P10938); test: Radioenzymatic assay of octopamine in urine (counted as synephrine); assay type: biochemical, bovine; details: One hundred pg of octopamine in urine
T1 construct: PNMT was partially purified from bovine adrenal medulla; from tissue; host or cells: bovine adrenal medulla
T1 sequence (P10938 1-283): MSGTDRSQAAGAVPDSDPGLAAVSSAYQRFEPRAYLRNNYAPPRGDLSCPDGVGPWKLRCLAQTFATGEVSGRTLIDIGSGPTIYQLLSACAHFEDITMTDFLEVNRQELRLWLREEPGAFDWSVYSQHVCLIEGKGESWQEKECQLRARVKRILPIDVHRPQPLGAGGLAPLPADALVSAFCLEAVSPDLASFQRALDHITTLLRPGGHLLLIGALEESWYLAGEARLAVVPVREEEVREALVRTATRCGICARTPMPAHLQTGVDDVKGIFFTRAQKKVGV
Procedure: The procedure of Examples I and II can be repeated but with the addition of 100 pg of octopamine in place of the 100 pg of normetanephrine as an internal standard, and by the addition of 5 micromole of unlabeled synephrine in place of the 5 micromole of metanephrine to facilitate chromatography band location. The pH of the incubation mixture is 9.3. The solvent system used is chloroform-ethanol-methylamine (40%) 16:3:2. In this case, synephrine bands are scraped into the scintillation vial and their counts per minute determined to yield the amount of octopamine, as synephrine.
A linear relationship was shown when octopamine was added either to urine or to water at 3-500 pg. Similarly, a linear relation was observed when both the synephrine and dimethyloctopamine were counted together after thin layer chromatography. These findings indicate that methylation of synephrine is proportioned to the added amount of octopamine and therefore validates the measurement of octopamine with this assay. When the synephrine was recovered from thin layer chromatography, it yielded a lower blank and therefore increased sensitivity. […] An additional wash with borate buffer (pH 10) and the use of chloroform-ethanol-methylamine as developing solvents further reduced the blank to a mean value of 56±7 cpm (N=13). Two and one-half octopamine in urine yields about 120-140 cpm. […]

With `NCC(O)c1ccc(O)cc1` (stereo not drawn) [Octopamine, octopamine] the “counts yielded by octopamine in urine” value was 2,500-3,000 cpm.

same assay, conditions: Two and one-half octopamine in urine

In the case of `NCC(O)c1ccc(O)cc1` (stereo not drawn) [Octopamine, octopamine], the “counts yielded by octopamine in urine” value is reported as 120-140 cpm.

target: T1, phenylethanolamine-N-methyl transferase; test: Substrate specificity: cross reactivities of catecholamines and congeners in the radioenzymatic assay for plasma normetanephrine; assay type: biochemical, bovine; details: 500 pg of amine added, sample counts
Procedure: (§1) PNMT was partially purified from bovine adrenal medulla according to the method of Henry et al, supra. In accordance with that procedure, thirty-three grams of medullary tissue are dissected from 15 fresh bovine adrenals and homogenized in 280 ml of 1.19 percent KCl solution. The homogenate is centrifuged at 40,000 g for one hour and the supernatant is filtered and recentrifuged at 100,000 g for one hour. To 250 ml of the supernatant are added 5 ml of 0.05M sodium phosphate buffer, pH 7.5 and 44 gm of solid ammonium sulfate. Another 19.8 gm of ammonium sulfate per 100 ml are added. The supernatant is discarded and the precipitate resuspended in 100 ml of 55 percent saturated ammonium sulfate--0.0125M sodium phosphate. The solution is recentrifuged and for each 100 ml of supernatant, 17 gm of ammonium sulfate are added. After centrifugation, the precipitate is resuspended in 50 ml of 0.005M tris, pH 7.4, containing 0.1 mM dithiothreitol and dialyzed in four liters of the buffer with four changes in a 16 hour period. The dialyzed enzyme is then centrifuged at 40,000 g for 10 minutes and frozen in small aliquots.
Duplicate aliquots (20-50 microliters) of the processed specimens were transferred to disposable culture tubes (13×100 mm); 10 ul of deionized water was added to one and the same volume of normetanephrine standard solution (100 pm) was added to the other. Two tubes of 50 microliters of 0.001N NCl were used for blanks instead of plasma for each assay run. The enzymatic reaction was initiated by the addition of a mixture of 10 ul each of 0.5M tris-HCl with 12.5 mM EDTA (pH 10.0), diluted tritiated […] (SAM-H^3 at 1.25 microCurie) and phenylethanolamine-N-methyl transferase prepared as above. The pH of the incubation mixture was 9.2. The incubation was carried out for sixty minutes at 37° C. and terminated by cooling in an ice bath and the addition of 100 ul of 0.5M borate buffer (pH 10.0) containing 5 micromole of metanephrine to facilitate the location of chromotography bands.
Radioactive products were extracted into 3 ml of toluene isoamyl-alcohol mixture (3:2) by agitation on a vortex mixer. The organic layer was separated by centrifugation, transferred to another set of tubes after quick freezing of the aqueous layer in a dry ice acetone bath and subsequently washed by 50 microliter of 0.5M borate buffer (pH 10.0) with similar procedures. Then the organic layer was transferred to a 15 ml centrifuge tube and the N-methylated products were back-extracted to 130 microliter of 0.1N acetic acid. After centrifugation, the organic layer was aspirated off and 100 microliter of the acetic acid phase was spotted on a silica gel plate with a multiple spotter. Thin layer chromatography was carried out in the chamber using as a developing solvent a mixture of tertiary amyl-alcohol, methylamine (40%), benzene (6:3:2, total 73.5 ml) for ninety minutes, in accordance with the procedure of Peuler and Johnson, supra. Then the plate was dried immediately. The metanephrine spot was marked under ultraviolet light, scraped off with a knife and transferred to a plastic vial containing 1 ml of 1N NH4 OH. Ten mls of ScintiVerse (obtained from the Fisher Scientific Co.) was added and the vial was left to stand for at least one hour prior to counting in a liquid scintillation counter. The plasma normetanephrine concentration was calculated from the radioactivity according to the formula given above.
Assays were conducted as in Example I using the solvent system of that example but in which the sample contained 250 pg of normetanephrine and in which there was added to the incubation mixture in individual tubes 10 microliters of the respective reagent listed in Table II.

First: CNC[C@H](O)c1ccc(O)c(O)c1 [Epinephrine, epinephrine]
Second: NC[C@H](O)c1ccc(O)c(O)c1 [Norepinephrine, norepinephrine]
The “%” value of the first is lower: 1.3% for the first, 1.6% for the second.

First: CNCC(O)c1ccc(O)cc1 (stereo not drawn) [Synephrine, synephrine]
Second: NCC(O)c1ccc(O)cc1 (stereo not drawn) [Octopamine, octopamine]
The “%” value of the first is lower: 4.2% for the first, 11.8% for the second.

`NCCc1ccc(O)cc1` [Tyramine, tyramine] and `NCCc1ccc(O)c(O)c1` [Dopamine, dopamine] are the same in “%” value: 1.3% for the first, 1.3% for the second.

With `CNCC(O)c1ccc(O)c(OC)c1` (stereo not drawn) [Metanephrine, metanephrine] the “%” value was 2.9%.

same assay, conditions: 500 pg of amine added, without normetanephrine internal standard, metanephrine band after TLC

First: CNC[C@H](O)c1ccc(O)c(O)c1 [Epinephrine, epinephrine]
Second: NC[C@H](O)c1ccc(O)c(O)c1 [Norepinephrine, norepinephrine]
The “Counts per Minute, Sample” value of the first is lower: 80 Counts per Minute for the first, 101 Counts per Minute for the second.

First: CNCC(O)c1ccc(O)cc1 (stereo not drawn) [Synephrine, synephrine]
Second: NCC(O)c1ccc(O)cc1 (stereo not drawn) [Octopamine, octopamine]
The “Counts per Minute, Sample” value of the first is lower: 262 Counts per Minute for the first, 726 Counts per Minute for the second.

First: NCCc1ccc(O)cc1 [Tyramine, tyramine]
Second: NCCc1ccc(O)c(O)c1 [Dopamine, dopamine]
The “Counts per Minute, Sample” value of the first is higher: 81 Counts per Minute for the first, 80 Counts per Minute for the second.

In the case of `CNCC(O)c1ccc(O)c(OC)c1` (stereo not drawn) [Metanephrine, metanephrine], the “Counts per Minute, Sample” value is reported as 180 Counts per Minute.

same assay, conditions: 500 pg of amine in assay for plasma normetanephrine

First: CNC[C@H](O)c1ccc(O)c(O)c1 [Epinephrine, epinephrine]
Second: NC[C@H](O)c1ccc(O)c(O)c1 [Norepinephrine, norepinephrine]
The “Percentage Interference” value of the first is lower: 0% for the first, 0.1% for the second.

First: CNCC(O)c1ccc(O)cc1 (stereo not drawn) [Synephrine, synephrine]
Second: NCC(O)c1ccc(O)cc1 (stereo not drawn) [Octopamine, octopamine]
The “Percentage Interference” value of the first is lower: 1.5% for the first, 4.9% for the second.

`NCCc1ccc(O)cc1` [Tyramine, tyramine] and `NCCc1ccc(O)c(O)c1` [Dopamine, dopamine] are the same in “Percentage Interference” value: 0% for the first, 0% for the second.

With `CNCC(O)c1ccc(O)c(OC)c1` (stereo not drawn) [Metanephrine, metanephrine] the “Percentage Interference” value was 0.7%.

same assay, conditions: 500 pg of amine plus 250 pg of normetanephrine

Compared with `CNC[C@H](O)c1ccc(O)c(O)c1` [Epinephrine, epinephrine], `NC[C@H](O)c1ccc(O)c(O)c1` [Norepinephrine, norepinephrine] is lower in “Counts per Minute, Normetanephrine Standard” value: 6124 Counts per Minute for the first, 6020 Counts per Minute for the second.

Compared with `CNCC(O)c1ccc(O)cc1` (stereo not drawn) [Synephrine, synephrine], `NCC(O)c1ccc(O)cc1` (stereo not drawn) [Octopamine, octopamine] is higher in “Counts per Minute, Normetanephrine Standard” value: 6160 Counts per Minute for the first, 7261 Counts per Minute for the second.

Going from `NCCc1ccc(O)cc1` [Tyramine, tyramine] to `NCCc1ccc(O)c(O)c1` [Dopamine, dopamine], the “Counts per Minute, Normetanephrine Standard” value rises from 6090 Counts per Minute to 6130 Counts per Minute.

In the case of `CNCC(O)c1ccc(O)c(OC)c1` (stereo not drawn) [Metanephrine, metanephrine], the “Counts per Minute, Normetanephrine Standard” value is reported as 6363 Counts per Minute.

same assay, conditions: apparent normetanephrine from 500 pg of amine, calculated using 250 pg in the formula

Going from `CNC[C@H](O)c1ccc(O)c(O)c1` [Epinephrine, epinephrine] to `NC[C@H](O)c1ccc(O)c(O)c1` [Norepinephrine, norepinephrine], the “Normetanephrine” value rises from 0 pg to 0.6 pg.

Going from `CNCC(O)c1ccc(O)cc1` (stereo not drawn) [Synephrine, synephrine] to `NCC(O)c1ccc(O)cc1` (stereo not drawn) [Octopamine, octopamine], the “Normetanephrine” value rises from 7.5 pg to 24.5 pg.

`NCCc1ccc(O)cc1` [Tyramine, tyramine] and `NCCc1ccc(O)c(O)c1` [Dopamine, dopamine] are the same in “Normetanephrine” value: 0 pg for the first, 0 pg for the second.

In the case of `CNCC(O)c1ccc(O)c(OC)c1` (stereo not drawn) [Metanephrine, metanephrine], the “Normetanephrine” value is reported as 3.8 pg.

test system: not given; test: not given; assay type: physicochemical; details: not given
Procedure: Blood specimens were collected into commercial vactainer tubes containing 15 milligrams EDTA for 10 ml of blood and placed on ice immediately. After centrifugation at 4° C., exactly 1 ml of plasma was transferred to a 10 ml test tube and kept in the freezer at -20° C. until the assay was performed. In this condition, plasma normetanephrine is stable for at least 2 months.

With `COc1cc(C(O)CN)ccc1O` (stereo not drawn) [Normetanephrine, normetanephrine] the “plasma normetanephrine is stable” value was “at least 2 months”.

test system: PNMT; test: Isomer preference of normetanephrine as substrate for PNMT; assay type: biochemical, bovine; details: vs dl-normetanephrine
Procedure: as §1
1-Normetanephrine is the preferred isomer as a substrate for PNMT and yielded about 1.5 times the activity of dl-normetanephrine. Thus, 1-normetanephrine should be used for calibration.

In the case of `COc1cc([C@@H](O)CN)ccc1O` [1-Normetanephrine], the “activity as substrate for PNMT relative to dl-normetanephrine” value is reported as “about 1.5 times”.
